Experimental data from US5149707A, “1-((2-fluorophenyl)(4-fluorophenyl)phenylmethyl)-1H-imidazole useful as antifungal agent” (J. Uriach & Cia, S.A., priority 1988, dated 1992).
Values after ≈ are worked out from the molar mass of the structure shown.

Legend:
Assay type in all cases: cell-based
[1] = tested on: C. guilliermondii; assay: MIC distribution, serial dilutions in Sabouraud gentamycin broth, microplates; settings: MIC column 40 (first); # of strains = 5
Procedure: (§1) The antifungal activity of 1-[(2-fluorophenyl)(4-fluorophenyl)phenylmethyl]-1H-imidazole and bifonazole was determined by serial dilutions in Sabouraud gentamycin broth using microplates. The antifungal agent was diluted in 50% ethanol to obtain concentrations between 40 and 0.015 mcg/ml. Inoculum was 10^7 cfu/ml for yeast and 10^6 cfu/ml for dermatophytes. Incubation was allowed at 37° C. during 2 days for yeasts, and at 29° C. during 7 days for dermatophytes. MIC's were determined as in example 18. The MIC distributions obtained in 9 organisms are shown in the next tables.

[2] = tested on: T. mentagrohytes; assay: as above; settings: # of strains = 17
Procedure: as §1

[3] = tested on: C. parapsilosis; assay: as above; settings: # of strains 10 = UR-4056/14 = Bifonazole
Procedure: as §1

[4] = tested on: M. canis; assay: as above; settings: # of strains = 13
Procedure: as §1

[5] = tested on: C. krusei; assay: as above; settings: # of strains = 5
Procedure: as §1

[6] = tested on: T. rubrum; assay: as above; settings: # of strains = 6
Procedure: as §1

[7] = tested on: T. glabrata; assay: as above; settings: # of strains = 10 = UR-4056/15 Bifonzaole
Procedure: as §1

[8] = tested on: C. albicans; assay: as above; settings: # of strains = 50
Procedure: as §1

[9] = tested on: C. tropicalis; assay: as above; settings: # of strains = 30
Procedure: as §1

[10] = tested on: T. glabrata (clinica); assay: In vitro antifungal activity (MIC), agar dilution; settings: Nakaseomyces glabratus
Procedure: (§2) The antifungal activity of 1-[(2-fluorophenyl)(4-fluorophenyl)phenylmethyl]-1H-imidazole was shown by its ability to inhibit the growth of different species of yeast and filamentous fungi in vitro. The activity was recorded as the MIC value, that is, the minimum amount of product needed to achieve the complete inhibition of the in vitro growth of the test organism. Testing was performed as follows: a solution of the antifungal agent in ethanol was diluted with DST agar (pH 6.5) or Emmon's Sabouraud dextrose agar to obtain concentrations between 10 and 0.01 mcg/ml, or 80 and 0.16 mcg/m, respectively. The inoculum was standarized in order 1×10^5 cfu/ml, and 10 mcl of each organism was seeded into the agar surface. Incubation was then allowed at 30° C. during 3 days (DST) or 2 days (Emmon's) for yeasts and 10 days for filamentous fungi. Following incubation, the zones of inhibition were measured and compared to an inoculated, drug-free control to yield the MIC value.

[11] = tested on: T. mentagrophytes (clinica) (2); assay: In vitro antifungal activity (MIC), agar dilution; settings: Trichophyton mentagrophytes
Procedure: as §2

[12] = tested on: T. mentagrophytes (clinica) (3); assay: In vitro antifungal activity (MIC), agar dilution; settings: Trichophyton mentagrophytes
Procedure: as §2

[13] = tested on: Microsporum gypseum; assay: In vitro antifungal activity (MIC), agar dilution; settings: Nannizzia gypsea
Procedure: as §2

[14] = tested on: Microsporum canis (clinica); assay: In vitro antifungal activity (MIC), agar dilution
Procedure: as §2

[15] = tested on: Aspergillus flavus; assay: In vitro antifungal activity (MIC), agar dilution
Procedure: as §2

[16] = tested on: Microsporum gypseum (-); assay: In vitro antifungal activity (MIC), agar dilution; settings: Nannizzia gypsea
Procedure: as §2

[17] = tested on: T. mentagrophytes ATCC 9129; assay: In vitro antifungal activity (MIC), agar dilution
Procedure: as §2

[18] = tested on: C. parapsilosis (clinica); assay: In vitro antifungal activity (MIC), agar dilution; settings: Lodderomyces parapsilosis
Procedure: as §2

[19] = tested on: C. guilliermondii SQ 2210; assay: In vitro antifungal activity (MIC), agar dilution; settings: Meyerozyma guilliermondii
Procedure: as §2

[20] = tested on: Microsporum audouini ATCC 9079; assay: In vitro antifungal activity (MIC), agar dilution
Procedure: as §2

[21] = tested on: T. mentagrophytes (clinica) (5); assay: In vitro antifungal activity (MIC), agar dilution; settings: Trichophyton mentagrophytes
Procedure: as §2

[22] = tested on: C. guilliermondii (clinica); assay: In vitro antifungal activity (MIC), agar dilution; settings: Meyerozyma guilliermondii
Procedure: as §2

[23] = tested on: C. albicans serotipo B; assay: In vitro antifungal activity (MIC), agar dilution; settings: Candida albicans
Procedure: as §2

[24] = tested on: T. mentagrophytes (clinica) (1); assay: In vitro antifungal activity (MIC), agar dilution; settings: Trichophyton mentagrophytes
Procedure: as §2

[25] = tested on: S. cerevisiae ATCC 9763; assay: In vitro antifungal activity (MIC), agar dilution; settings: Saccharomyces cerevisiae
Procedure: as §2

[26] = Emmon's Sabouraud dextrose agar

c1ccc(-c2ccc(C(c3ccccc3)n3ccnc3)cc2)cc1 (centres unmarked) [Bifonazole, 1-[(4-biphenyl)-phenylmethyl]-1H-imidazole, reference compound]
MIC Distribution (number of strains) [1]: 5 # of strains
MIC Distribution (number of strains) ([2]; MIC 0.038): 1 # of strains
MIC Distribution (number of strains) ([2]; MIC 0.6): 1 # of strains
MIC Distribution (number of strains) ([2]; MIC 2.5): 5 # of strains
MIC Distribution (number of strains) ([2]; MIC column 1.2): 10 # of strains
MIC Distribution (number of strains) ([3]; MIC 0.6): 1 # of strains
MIC Distribution (number of strains) ([3]; MIC 5.0): 1 # of strains
MIC Distribution (number of strains) ([3]; MIC column 10): 2 # of strains
MIC Distribution (number of strains) ([3]; MIC column 40 (first)): 10 # of strains
MIC Distribution (number of strains) ([4]; MIC 0.038): 1 # of strains
MIC Distribution (number of strains) ([4]; MIC 2.5): 4 # of strains
MIC Distribution (number of strains) ([4]; MIC 5.0): 5 # of strains
MIC Distribution (number of strains) ([4]; MIC column 0.078): 1 # of strains
MIC Distribution (number of strains) ([4]; MIC column 1.2): 2 # of strains
MIC Distribution (number of strains) ([5]; MIC 2.5): 1 # of strains
MIC Distribution (number of strains) ([5]; MIC column 10): 1 # of strains
MIC Distribution (number of strains) ([5]; MIC column 40 (first)): 3 # of strains
MIC Distribution (number of strains) ([6]; MIC 0.038): 2 # of strains
MIC Distribution (number of strains) ([6]; MIC 0.3): 1 # of strains
MIC Distribution (number of strains) ([6]; MIC 0.6): 1 # of strains
MIC Distribution (number of strains) ([6]; MIC 5.0): 1 # of strains
MIC Distribution (number of strains) ([6]; MIC column 1.2): 1 # of strains
MIC Distribution (number of strains) ([7]; MIC 0.15): 1 # of strains
MIC Distribution (number of strains) ([7]; MIC 0.6): 1 # of strains
MIC Distribution (number of strains) ([7]; MIC 2.5): 3 # of strains
MIC Distribution (number of strains) ([7]; MIC 5.0): 5 # of strains
MIC Distribution (number of strains) ([7]; MIC column 10): 3 # of strains
MIC Distribution (number of strains) ([7]; MIC column 40 (first)): 2 # of strains
MIC Distribution (number of strains) ([8]; MIC 2.5): 6 # of strains
MIC Distribution (number of strains) ([8]; MIC 5.0): 28 # of strains
MIC Distribution (number of strains) ([8]; MIC column 10): 11 # of strains
MIC Distribution (number of strains) ([8]; MIC column 20): 1 # of strains
MIC Distribution (number of strains) ([8]; MIC column 40 (first)): 4 # of strains
MIC Distribution (number of strains) ([9]; MIC 5.0): 2 # of strains
MIC Distribution (number of strains) ([9]; MIC column 10): 1 # of strains
MIC Distribution (number of strains) ([9]; MIC column 40 (first)): 27 # of strains
MIC ([10]; DST agar): 0.05 µg/mL (≈ 0.161 µM)
MIC [10, 26]: 0.16 µg/mL (≈ 0.515 µM)
MIC ([11]; DST agar): 10 µg/mL (≈ 32.2 µM)
MIC [11, 26]: 80 µg/mL (≈ 258 µM)
MIC ([12]; DST agar): 1 µg/mL (≈ 3.22 µM)
MIC [12, 26]: 5 µg/mL (≈ 16.1 µM)
MIC ([13]; DST agar): 0.1 µg/mL (≈ 0.322 µM)
MIC [13, 26]: 0.63 µg/mL (≈ 2.03 µM)
MIC ([14]; DST agar): 0.025 µg/mL (≈ 0.0805 µM)
MIC [14, 26]: 2.5 µg/mL (≈ 8.05 µM)
MIC ([15]; DST agar): 10 µg/mL (≈ 32.2 µM)
MIC [15, 26]: 80 µg/mL (≈ 258 µM)
MIC ([16]; DST agar): 2.5 µg/mL (≈ 8.05 µM)
MIC [16, 26]: 5 µg/mL (≈ 16.1 µM)
MIC [17, 26]: 2.50 µg/mL (≈ 8.05 µM)
MIC ([17]; Trichophyton mentagrophytes, ATCC9129): 2.5 µg/mL (≈ 8.05 µM)
MIC ([18]; DST agar): 10 µg/mL (≈ 32.2 µM)
MIC [18, 26]: 20 µg/mL (≈ 64.4 µM)
MIC ([19]; SQ2210, DST agar): 10 µg/mL (≈ 32.2 µM)
MIC ([19]; SQ2210, Emmon's Sabouraud dextrose agar): 5 µg/mL (≈ 16.1 µM)
MIC ([20]; ATCC9079, DST agar): 0.05 µg/mL (≈ 0.161 µM)
MIC ([20]; ATCC9079, Emmon's Sabouraud dextrose agar): 5 µg/mL (≈ 16.1 µM)
MIC ([21]; DST agar): 1 µg/mL (≈ 3.22 µM)
MIC [21, 26]: 5 µg/mL (≈ 16.1 µM)
MIC [22, 26]: 40 µg/mL (≈ 129 µM)
MIC ([22]; DST agar): 10 µg/mL (≈ 32.2 µM)
MIC ([23]; DST agar): 10 µg/mL (≈ 32.2 µM)
MIC [23, 26]: 20 µg/mL (≈ 64.4 µM)
MIC ([24]; DST agar): 0.5 µg/mL (≈ 1.61 µM)
MIC [24, 26]: 5 µg/mL (≈ 16.1 µM)
MIC ([25]; ATCC9763, DST agar): 0.25 µg/mL (≈ 0.805 µM)
MIC ([25]; ATCC9763, Emmon's Sabouraud dextrose agar): 0.63 µg/mL (≈ 2.03 µM)
